The subject of assay [1] is huPPARγ. In words: Cotransfection assay in CV-1 cells, luciferase reporter. The assay is classed as cell-based, human. The note with it: GAL4 chimeric system, relative to agonist reference molecule. On the procedure:
[…] binding (ABCD binding) was carried out using SPA technology with PPAR receptors. […] Cotransfection assays were carried out in CV-1 cells. The reporter plasmid contained an acylCoA oxidase (AOX) PPRE and TK promoter upstream of the luciferase reporter cDNA. Appropriate PPARs and RXRα were constitutively expressed using plasmids containing the CMV promoter. […] In order to eliminate such interference, a GAL4 chimeric system was used in which the DNA binding domain of the transfected PPAR was replaced by that of GAL4, and the GAL4 response element was utilized in place of the AOX PPRE. […] Efficacies were determined by computer fit to a concentration-response curve, or in some cases at a single high concentration of agonist (10 μM). For binding or cotransfection studies with receptors other than PPARs, similar assays were carried out using appropriate ligands, receptors, reporter constructs, etc., for that particular receptor.
(§1) These studies were carried out to evaluate the ability of compounds of the invention to bind to and/or activate various nuclear transcription factors, particularly huPPARα (“hu” indicates “human”) and huPPARγ. These studies provide in vitro data concerning efficacy and selectivity of compounds of the invention. Furthermore, binding and cotransfection data for compounds of the invention were compared with corresponding data for marketed compounds that act on either huPPARα or huPPARγ.

In assay [2] the test system is huPPARα. Described as above. Format: cell-based, human. The conditions noted are these: GAL4 chimeric system, relative to PPARα agonist reference molecule. The method, then:
(§2) […] binding (ABCD binding) was carried out using SPA technology with PPAR receptors. Tritium-labeled PPARα and PPARγ agonists were used as radioligands for generating displacement curves and IC50 values with compounds of the invention. Cotransfection assays were carried out in CV-1 cells. The reporter plasmid contained an acylCoA oxidase (AOX) PPRE and TK promoter upstream of the luciferase reporter cDNA. Appropriate PPARs and RXRα were constitutively expressed using plasmids containing the CMV promoter. For PPARα and PPARγ, interference by endogenous PPARγ in CV-1 cells was an issue. In order to eliminate such interference, a GAL4 chimeric system was used in which the DNA binding domain of the transfected PPAR was replaced by that of GAL4, and the GAL4 response element was utilized in place of the AOX PPRE. Cotransfection efficacy was determined relative to PPARα agonist and […] reference molecules. Efficacies were determined by computer fit to a concentration-response curve, or in some cases at a single high concentration of agonist (10 μM). For binding or cotransfection studies with receptors other than PPARs, similar assays were carried out using appropriate ligands, receptors, reporter constructs, etc., for that particular receptor.
as §1

Assay [3] addresses T1, huPPARγ (Homo sapiens, UniProt P37231).
T1 sequence (P37231 1-505): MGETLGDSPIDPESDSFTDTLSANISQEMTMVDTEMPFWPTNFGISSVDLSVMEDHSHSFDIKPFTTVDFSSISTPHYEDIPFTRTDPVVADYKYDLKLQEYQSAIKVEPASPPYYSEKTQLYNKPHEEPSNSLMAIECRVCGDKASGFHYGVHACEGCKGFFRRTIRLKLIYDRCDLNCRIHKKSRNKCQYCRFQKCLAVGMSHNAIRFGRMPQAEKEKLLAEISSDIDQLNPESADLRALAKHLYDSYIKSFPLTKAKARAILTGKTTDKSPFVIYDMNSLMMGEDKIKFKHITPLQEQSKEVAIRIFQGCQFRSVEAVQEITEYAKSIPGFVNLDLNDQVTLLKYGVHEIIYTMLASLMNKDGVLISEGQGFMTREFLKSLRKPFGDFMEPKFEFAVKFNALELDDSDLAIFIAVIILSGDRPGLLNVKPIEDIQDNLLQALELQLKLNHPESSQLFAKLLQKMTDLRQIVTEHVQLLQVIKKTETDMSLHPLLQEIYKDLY
T1 sequence (P19793 1-462 partner): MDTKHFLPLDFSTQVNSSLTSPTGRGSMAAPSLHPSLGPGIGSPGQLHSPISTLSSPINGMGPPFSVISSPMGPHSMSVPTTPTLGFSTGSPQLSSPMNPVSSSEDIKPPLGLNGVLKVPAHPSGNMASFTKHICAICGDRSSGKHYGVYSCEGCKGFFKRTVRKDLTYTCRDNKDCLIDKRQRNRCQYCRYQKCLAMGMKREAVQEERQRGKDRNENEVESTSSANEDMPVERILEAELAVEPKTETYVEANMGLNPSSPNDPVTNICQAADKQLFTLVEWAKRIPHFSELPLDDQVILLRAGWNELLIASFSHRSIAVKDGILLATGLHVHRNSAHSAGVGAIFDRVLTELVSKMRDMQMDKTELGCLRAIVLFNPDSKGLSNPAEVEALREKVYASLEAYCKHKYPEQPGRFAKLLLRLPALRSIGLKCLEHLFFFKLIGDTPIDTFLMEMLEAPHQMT
Kind of assay: DNA-dependent binding (ABCD binding), SPA, radioligand displacement. The conditions noted are these: tritium-labeled PPARγ agonist radioligand. The method, then:
as §2, with “For PPARα and PPARγ, interference by endogenous PPARγ in CV-1 cells was an issue.” left out
as §1

The target in assay [4] is T2, huPPARα (Homo sapiens, UniProt Q07869).
T2 sequence (Q07869 1-468): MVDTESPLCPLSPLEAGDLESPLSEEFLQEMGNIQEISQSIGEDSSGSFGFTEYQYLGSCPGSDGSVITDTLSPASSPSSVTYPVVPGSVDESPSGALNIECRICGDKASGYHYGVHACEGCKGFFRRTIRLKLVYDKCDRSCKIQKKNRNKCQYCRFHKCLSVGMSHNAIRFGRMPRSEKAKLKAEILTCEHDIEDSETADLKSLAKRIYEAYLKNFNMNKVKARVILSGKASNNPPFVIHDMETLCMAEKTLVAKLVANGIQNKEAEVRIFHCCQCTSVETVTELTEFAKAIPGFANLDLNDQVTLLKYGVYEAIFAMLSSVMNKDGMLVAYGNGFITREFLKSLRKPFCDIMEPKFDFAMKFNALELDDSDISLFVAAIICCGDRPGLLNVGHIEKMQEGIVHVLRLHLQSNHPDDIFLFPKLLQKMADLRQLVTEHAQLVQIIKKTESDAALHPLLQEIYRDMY
T2 sequence (P19793 1-462 partner): T1 sequence (P19793 1-462 partner)
The description is as above. The conditions noted are these: tritium-labeled PPARα agonist radioligand. On the procedure:
as §2, with “For PPARα and PPARγ, interference by endogenous PPARγ in CV-1 cells was an issue.” left out
as §1

Turning to `COc1cc(CC(C)(Oc2ccccc2)C(=O)O)ccc1OCCc1nc(-c2ccc(-c3ccccc3)cc2)oc1C` (centres unmarked) [Example 7, 3-{4-[2-(2-Biphenyl-4-yl-5-methyloxazol-4-yl)ethoxy]-3-methoxyphenyl}-2-methyl-2-phenoxypropionic acid], the “huPPARγ CTF Efficacy” value with huPPARγ [1] worked out at 93%. Further, the “huPPARα CTF Efficacy” value with huPPARα [2] turned out to be 60%. Also, the values for the IC50 at huPPARγ [3] and on huPPARα [4] were 174 nM and 4120 nM, respectively.
With `COc1cc(CC(C)(Oc2ccccc2)C(=O)O)ccc1OCCc1nc(-c2cccc(-c3ccccc3)c2)oc1C` (centres unmarked) [Example 8, 3-{4-[2-(2-Biphenyl-3-yl-5-methyloxazol-4-yl)ethoxy]-3-methoxyphenyl}-2-methyl-2-phenoxypropionic acid], in the assay on huPPARγ [1], the “huPPARγ CTF Efficacy” value came to 91%. Besides, the “huPPARα CTF Efficacy” value with huPPARα [2] was 45%. For the same compound, the IC50 at huPPARγ [3] is 41 nM; on huPPARα [4] it was 605 nM.
Consider `Cc1oc(-c2ccc(-c3ccccc3)cc2)nc1CCOc1ccc(CC(C)(Oc2ccc(C(C)(C)C)cc2)C(=O)O)cc1` (centres unmarked) [Example 15, 3-{4-[2-(2-Biphenyl-4-yl-5-methyl-oxazol-4-yl)-ethoxy]-phenyl}-2-methyl-2-(4-tert-butylphenoxy)-propionic acid], for which the “huPPARγ CTF Efficacy” value with huPPARγ [1] came out at 90%. In addition, the “huPPARα CTF Efficacy” value in the assay with huPPARα [2] is recorded as 96%. Further, the figures for the IC50 at huPPARγ [3] and on huPPARα [4] were 107 nM and 196 nM, respectively.
On the same counts, the results for `Cc1oc(-c2ccc(-c3cccs3)cc2)nc1CCOc1ccc(CC(C)(Oc2ccc(C(C)(C)C)cc2)C(=O)O)cc1` (centres unmarked) [Example 17, 2-Methyl-3-(4-{2-[5-methyl-2-(4-thiophen-2-yl-phenyl)-oxazol-4-yl]-ethoxy}-phenyl)-2-(4-tert-butylphenoxy)-propionic acid] are 80%, 116%, 119 nM and 186 nM.
As for `Cc1oc(-c2ccc(-c3cccs3)cc2)nc1CCOc1ccc(CC(C)(Oc2cccc(F)c2)C(=O)O)cc1` (centres unmarked) [Example 22, 2-(3-Fluoro-phenoxy)-2-methyl-3-(4-{2-[5-methyl-2-(4-thiophen-2-yl-phenyl)-oxazol-4-yl]-ethoxy}-phenyl)-propionic acid], in the assay with huPPARγ [1], the “huPPARγ CTF Efficacy” value was found to be 100%. The “huPPARα CTF Efficacy” value in the assay on huPPARα [2] is listed as 63%. Further, the values for the IC50 at huPPARγ [3] and on huPPARα [4] were 78 nM and 260 nM, respectively.
On the same counts, the results for `Cc1oc(-c2cccc(-c3cccs3)c2)nc1CCOc1ccc(CC(C)(Oc2ccc(Cl)cc2)C(=O)O)cc1` (centres unmarked) [Example 26, 2-(4-Chlorophenoxy)-2-methyl-3-(4-{2-[5-methyl-2-(3-thiophen-2-yl-phenyl)-oxazol-4-yl]-ethoxy}-phenyl)-propionic acid] are 100%, 54%, 55 nM and 159 nM.
Turning to `Cc1ccc(OC(C)(Cc2ccc(OCCc3nc(-c4ccc(-c5ccccc5)cc4)oc3C)cc2)C(=O)O)cc1C` (centres unmarked) [Example 34, 3-{4-[2-(2-Biphenyl-4-yl-5-methyl-oxazol-4-yl)-ethoxy]-phenyl}-2-(3,4-dimethyl-phenoxy)-2-methyl-propionic acid], the “huPPARγ CTF Efficacy” value with huPPARγ [1] turned out to be 95%. The “huPPARα CTF Efficacy” value in the assay on huPPARα [2] was 61%. Besides, the half-maximal inhibitory concentration (IC50) at huPPARγ [3] is 40 nM; at huPPARα [4], 165 nM.
Take `CCC(Cc1ccc(OCCc2nc(-c3cccc(-c4ccccc4)c3)oc2C)cc1)(Oc1ccccc1)C(=O)O` (centres unmarked) [Example 41, 2-{4-[2-(2-Biphenyl-3-yl-5-methyl-oxazol-4-yl)-ethoxy]-benzyl}-2-phenoxy-butyric acid]: in the assay on huPPARγ [1], the “huPPARγ CTF Efficacy” value was 108%. For the same compound, the “huPPARα CTF Efficacy” value in the assay on huPPARα [2] turned out to be 44%. Also, the IC50 came out at 45 nM at huPPARγ [3] and 402 nM at huPPARα [4].
On to `CCC(Cc1ccc(OCCc2nc(-c3cccc(-c4cccs4)c3)oc2C)cc1)(Oc1ccccc1)C(=O)O` (centres unmarked) [Example 42, 2-(4-{2-[5-Methyl-2-(3-thiophen-2-yl-phenyl)-oxazol-4-yl]-ethoxy}-benzyl)-2-phenoxy-butyric acid], for which the “huPPARγ CTF Efficacy” value in the assay with huPPARγ [1] was found to be 105%. Moreover, the “huPPARα CTF Efficacy” value in the assay on huPPARα [2] was 49%. In addition, the concentration for half-maximal inhibition (IC50) on huPPARγ [3] amounted to 56 nM; at huPPARα [4], 310 nM.
The like results for `Cc1cccc(OC(C)(Cc2ccc(OCCc3nc(-c4cccc(-c5ccccc5)c4)oc3C)cc2)C(=O)O)c1` (centres unmarked) [Example 48, 3-{4-[2-(2-Biphenyl-3-yl-5-methyl-oxazol-4-yl)-ethoxy]-phenyl}-2-methyl-2-m-tolyloxy-propionic acid] were, in that order, 145%, 45%, 54 nM and 182 nM.
The like results for `Cc1oc(-c2cccc(-c3ccccc3)c2)nc1CCOc1ccc(CC(C)(Oc2ccc(F)cc2)C(=O)O)cc1` (centres unmarked) [Example 51, 3-{4-[2-(2-Biphenyl-3-yl-5-methyl-oxazol-4-yl)-ethoxy]-phenyl}-2-(4-fluoro-phenoxy)-2-methyl-propionic acid] were, in that order, 160%, 43%, 56 nM and 203 nM.
For the compound `CC(C)(Oc1ccc(C(=O)c2ccc(Cl)cc2)cc1)C(=O)O` [Fenofibric acid, reference compound], the “huPPARγ CTF Efficacy” value in the assay with huPPARγ [1] is 0%. Further, the “huPPARα CTF Efficacy” value in the assay on huPPARα [2] was 16%.
As for `Cc1c(C)c2c(c(C)c1O)CCC(C)(COc1ccc(CC3SC(=O)NC3=O)cc1)O2` (centres unmarked) [Troglitazone, reference compound], the “huPPARα CTF Efficacy” value in the assay with huPPARα [2] turned out to be 0%.
